Reference: US12180226B2, “Spirotricycle RIPK1 inhibitors and methods of uses thereof” (Merck Sharp & Dohme LLC, priority 2021, dated 2024)
pEC50: −log10 of the molar value. Structures can show the parent of a compound that is named as a salt.

target: RIPK1 (recombinant GST-RIPK1 kinase domain, residues 1-327) (Homo sapiens (Human), UniProt Q13546); experiment: RIPK1-ADP-Glo Enzymatic Assay; format: biochemical; settings: ADP-Glo; 25 nM GST-RIPK1, 300 μM ATP; assay lower limit ~25 nM; read-out: RIPK1 V0 Ec50
Procedure, shortened: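 GST-tagged kinase domain (residues 1-327, Sf21-expressed), 25 nM, pre-incubated 30 min with compound at ambient temperature, then reacted 150 min with 300 μM ATP and 3 μM dephosphorylated MBP in HEPES pH 7.3 buffer. ADP measured by ADP-Glo luminescence; EC50 from ten-point titration (top 100000 nM), four-parameter fit.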

Sequence of RIPK1 (recombinant GST-RIPK1 kinase domain, residues 1-327) (Q13546 1-327): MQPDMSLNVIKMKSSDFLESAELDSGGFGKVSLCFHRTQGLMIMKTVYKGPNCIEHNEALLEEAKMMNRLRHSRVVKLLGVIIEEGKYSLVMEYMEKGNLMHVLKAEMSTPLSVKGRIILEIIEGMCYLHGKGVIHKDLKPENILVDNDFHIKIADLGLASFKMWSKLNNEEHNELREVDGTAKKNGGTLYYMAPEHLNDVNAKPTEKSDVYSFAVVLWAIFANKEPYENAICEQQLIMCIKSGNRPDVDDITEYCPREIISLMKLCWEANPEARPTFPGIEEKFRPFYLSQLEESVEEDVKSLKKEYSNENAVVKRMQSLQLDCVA

pEC50	Compound
> 7.60	N#Cc1cnc(N2CCC3(CC2)O[C@@H]2CC[C@@H](c4ccccc4F)N2C3=O)n2ncnc12 [Example 4.242, 5-[(5′S,7a′R)-5′-(2-fluorophenyl)-3′-oxotetrahydro-1H,3′H-spiro[piperidine-4,2′-pyrrolo[2,1-b] [1,3]oxazol]-1-yl] [1,2,4]triazolo[1,5-c] pyrimidine-8-carbonitrile]
> 7.60	CC1CN(C(=O)c2ccccc2)CCC12O[C@@H]1CC[C@@H](c3cc(F)cc(F)c3)N1C2=O (single isomer, unassigned) [Example 2.6, (3[S or R],4[S or R], 5′S,7a′R)-1-benzoyl-5′-(3,5-difluorophenyl)-3-methyltetrahydro-3′H-spiro[piperidine-4,2′-pyrrolo[2,1-b]oxazol]-3′-one]
> 7.60	N#Cc1ccc(N2CCC3(CC2)O[C@@H]2CC[C@@H](c4ccccc4F)N2C3=O)n2nccc12 [Example 4.156, 7-[(5′S,7a′R)-5′-(2-fluorophenyl)-3′-oxotetrahydro-1H,3′H-spiro[piperidine-4,2′-pyrrolo[2,1-b] [1,3]oxazol]-1-yl]pyrazolo[1,5-a] pyridine-4-carbonitrile]
7.46	O=C1N2[C@@H](CC[C@H]2c2ccccc2F)OC12CN(c1cc(-c3ccccc3)no1)C2 [Example 11.35, (5′S,7a′R)-5′-(2-fluorophenyl)-1-(3-phenyl-1,2-oxazol-5-yl)tetrahydro-3′H-spiro[azetidine-3,2′-pyrrolo[2,1-b][1,3]oxazol]-3′-one]
> 7.60	CC1CN(C(=O)c2ccccc2)CCC12O[C@@H]1CC[C@@H](c3cc(F)cc(F)c3)N1C2=O (single isomer, unassigned) [Example 2.4, (3[R or S],4[R or S], 5′S,7a′R)-1-benzoyl-5′-(3,5-difluorophenyl)-3-methyltetrahydro-3′H-spiro[piperidine-4,2′-pyrrolo[2,1-b]oxazol]-3′-one]
> 7.60	O=C1N2[C@@H](CC[C@H]2c2ccccc2)OC12CCN(c1ncnc3c(I)cnn13)CC2 [Example 4.219, (5′S,7a′R)-1-(8-iodopyrazolo[1,5-a] [1,3,5]triazin-4-yl)-5′-phenyltetrahydro-3′H-spiro[piperidine-4,2′-pyrrolo[2,1-b] [1,3]oxazol]-3′-one]
> 7.60	Cc1nccn1-c1cc(N2CCC3(CC2)O[C@@H]2CC[C@@H](c4ccccc4)N2C3=O)ncn1 [Example 4.175, (5′S,7a′R)-1-[6-(2-methyl-1H-imidazol-1-yl)pyrimidin-4-yl]-5′-phenyltetrahydro-3′H-spiro[piperidine-4,2′-pyrrolo[2,1-b] [1,3]oxazol]-3′-one]
7.49	O=C(c1ncoc1C1CC1)N1CCC2(CC1)O[C@@H]1CC[C@@H](c3cc(F)cc(F)c3)N1C2=O [Example 6.24, (5′S,7a′R)-1-(5-cyclo-propyl-1,3-oxazole-4-carbonyl)-5′-(3,5-difluorophenyl)tetra-hydro-3′H-spiro[piperi-dine-4,2′-pyrrolo[2,1-b][1,3]oxazol]-3′-one]
7.53	Cc1ncc([C@@H]2CC[C@H]3OC4(CCN(c5ccnc6ccnn56)CC4)C(=O)N32)cc1F [Example 4.89, (5′S,7a′R)-5′-(5-fluoro-6-methylpyridin-3-yl)-1-(pyrazolo[1,5-a]pyrimidin-7-yl)tetrahydro-3′H-spiro[piperidine-4,2′-pyrrolo[2,1-b]oxazol]-3′-one]
7.20	Cc1cc2nccc(N3CCC4(CC3)O[C@@H]3CC[C@@H](c5cc(F)cc(F)c5)N3C4=O)n2n1 [Example 4.85, (5′S,7a′R)-5′-(3,5-difluorophenyl)-1-(2-methylpyrazolo[1,5-a]pyrimidin-7-yl)tetrahydro-3′H-spiro[piperidine-4,2′-pyrrolo[2,1-b]oxazol]-3′-one, TFA salt]
> 7.60	CC1CN(c2cccc3ncnn23)CCC12O[C@@H]1CC[C@@H](c3cc(F)cc(F)c3)N1C2=O (stereo partly drawn) [Example 4.266, (5′S,7a′R)-5′-(3,5-difluorophenyl)-3-methyl-1-([1,2,4]triazolo[1,5-a]pyridin-5-yl)tetrahydro-3′H-spiro[piperidine-4,2′-pyrrolo[2,1-b] [1,3]oxazol]-3′-one]
6.44	O=C1N2[C@@H](CC[C@H]2c2cc(F)cc(F)c2)OC12CCN(c1ncc(F)c3nncn13)CC2 [Example 13.13, (5′S,7a′R)-5′-(3,5-difluorophenyl)-1-(8-fluoro-[1,2,4]triazolo[4,3-c]pyrimidin-5-yl)tetrahydro-3′H-spiro[piperidine-4,2′-pyrrolo[2,1-b]oxazol]-3′-one, TFA salt]
> 7.60	O=C(c1onc2ccccc12)N1CCC2(CC1)O[C@@H]1CC[C@@H](c3cc(F)cc(F)c3)N1C2=O [Example 6.50, (5′S,7a′R)-1-(2,1-benzoxazole-3-carbonyl)-5′-(3,5-difluorophenyl)tetra-hydro-3′H-spiro [piperidine-4,2′-pyrrolo[2,1-b][1,3]oxazol]-3′-one]
6.56	CC1C[C@@]2(CCN1C(=O)c1ccccc1)O[C@@H]1CC[C@@H](c3cccc(F)c3)N1C2=O (stereo partly drawn) [Example 6.161, (4R,5′S,7a′R)-1-(benzenecarbonyl)-5′-(3-fluorophenyl)-2-methyltetrahydro-3′H-spiro[piperidine-4,2′-pyrrolo[2,1-b][1,3]-oxazol]-3′-one]
> 7.60	Cc1nc(N2CCC3(CC2)O[C@@H]2CC[C@@H](c4ccccc4F)N2C3=O)ccc1C#N [Example 4.105, 6-((5′S,7a′R)-5′-(2-fluorophenyl)-3′-oxotetrahydro-3′H-spiro[piperidine-4,2′-pyrrolo[2,1-b]oxazol]-1-yl)-2-methylnicotinonitrile]
6.35	O=C(c1cnon1)N1CCC2(CC1)O[C@@H]1CC[C@@H](c3cc(F)cc(F)c3)N1C2=O [Example 5.46, (5′S,7a′R)-5′-(3,5-difluoro-phenyl)-1-(1,2,5-oxazole-3-carbonyl)tetrahydro-3′H-spiro[piperidine-4,2′-pyrrolo-[2,1-b]oxazol]-3′-one]
> 7.60	COc1cc(N2CCC3(CC2)O[C@@H]2CC[C@@H](c4ccccc4)N2C3=O)ncc1C#N [Example 4.220, 4-methoxy-6-[(5′S,7a′R)-3′-oxo-5′-phenyltetrahydro-1H,3′H-spiro[piperidine-4,2′-pyrrolo[2,1-b] [1,3]oxazol]-1-yl]pyridine-3-carbonitrile]
7.60	COC(=O)c1cnc(N2CCC3(CC2)O[C@@H]2CC[C@@H](c4ccccc4)N2C3=O)c(OC)c1 [Example 4.197, methyl 5-methoxy-6-[(5′S,7a′R)-3′-oxo-5′-phenyltetrahydro-1H,3′H-spiro[piperidine-4,2′-pyrrolo[2,1-b] [1,3]oxazol]-1-yl]pyridine-3-carboxylate]
7.07	O=C(c1cnc(Cl)cn1)N1CCC2(CC1)O[C@@H]1CC[C@@H](c3cc(F)cc(F)c3)N1C2=O [Example 6.86, (5′S,7a′R)-1-(5-chloro-pyrazine-2-carbonyl)-5′-(3,5-difluorophen-yl)tetrahydro-3′H-spiro[piperidine-4,2′-pyrrolo[2,1-b][1,3]-oxazol]-3′-one]
> 7.60	O=C(c1ccc(Cl)cc1F)N1CCC2(CC1)O[C@@H]1CC[C@@H](c3cc(F)cc(F)c3)N1C2=O [Example 5.59, (5′S,7a′R)-1-(4-chloro-2-fluorobenzoyl)-5′-(3,5-difluorophenyl)tetrahydro-3′H-spiro[piperidine-4,2′-pyrrolo[2,1-b]oxazol]-3′-one]
6.44	O=C1N2[C@@H](CC[C@H]2c2cc(F)cc(F)c2)OC12CCN(c1ccnc3ncnn13)CC2 [Example 4.83, (5′S,7a′R)-1-([1,2,4]triazolo[1,5-a]pyrimidin-7-yl)-5′-(3,5-difluorophenyl)tetrahydro-3′H-spiro[piperidine-4,2′-pyrrolo[2,1-b]oxazol]-3′-one, TFA salt]
6.45	O=C1N2C(=NC13CCN(c1cc(-c4cnn(C(F)F)c4)ncn1)CC3)CC[C@H]2c1cc(F)cc(F)c1 [Example 10.3, (S)-1-(6-(1-(difluoromethyl)-1H-pyrazol-4-yl)pyrimidin-4-yl)-5′-(3,5-difluorophenyl)-6′,7′-dihydro-3′H,5′H-spiro[piperidine-4,2′-pyrrolo[1,2-a]imidazol]-3′-one]
7.58	O=C(c1ccccc1)N1CCC2(CC1)O[C@@H]1CC[C@@H](c3ccc4sccc4c3)N1C2=O [Example 17.2, (5′S,7a′R)-5′-(benzo[b]thiophen-5-yl)-1-benzoyltetrahydro-3′H-spiro[piperidine-4,2′-pyrrolo[2,1-b]oxazol]-3′-one]
> 7.60	O=C(c1cccc(O)c1)N1CCC2(CC1)O[C@@H]1CC[C@@H](c3cc(F)cc(F)c3)N1C2=O [Example 5.63, (5′S,7a′R)-5′-(3,5-difluoro-phenyl)-1-(3-hydroxy-benzoyl)tetrahydro-3′H-spiro[piperidine-4,2′-pyrrolo[2,1-b]oxazol]-3′-one]
6.44	O=C1N2[C@@H](CC[C@H]2c2ccccc2)OC12CCN(c1ncccc1C(F)F)CC2 [Example 11.24, (5′S,7a′R)-1-[3-(difluoromethyl)pyridin-2-yl]-5′-phenyltetrahydro-3′H-spiro[piperidine-4,2′-pyrrolo[2,1-b][1,3]oxazol]-3′-one]
6.31	O=C1N2[C@@H](CC[C@H]2c2cc(F)cc(F)c2)OC12CCN(c1nccn3cncc13)CC2 [Example 13.14, (5′S,7a′R)-5′-(3,5-difluorophenyl)-1-(imidazo[1,5-a]pyrazin-8-yl)tetrahydro-3′H-spiro[piperidine-4,2′-pyrrolo[2,1-b]oxazol]-3′-one, TFA salt]
7.60	O=C(c1nccs1)N1CCC2(CC1)O[C@@H]1CC[C@@H](c3cc(F)cc(F)c3)N1C2=O [Example 5.35, (5′S,7a′R)-5′-(3,5-difluoro-phenyl)-1-(thiazole-2-carbonyl)tetrahydro-3′H-spiro[piperidine-4,2′-pyrrolo[2,1-b]oxazol]-3′-one]
